From patent US10538485B2, “Compounds for use as therapeutic agents affecting P53 expression and/or activity” (ABIVAX, priority 2011, dated 2020)

How the values were obtained:
Assay type in all cases: cell-based
[1] = test system: p53-target genes Hdm2, Bcl-2, p21 (wild-type p53 MCF7 cells); experiment: p53 transcriptional activity: p53-target gene expression by Western-blot in MCF7 cells; conditions: 5 μM, 48 hours
Method: (§1) The compounds of the invention have been tested according to the following pharmacological test and the three compounds have been more particularly tested: (40), (1) and (45), all diluted in DMSO. Their effects were thus compared to cells treated with DMSO. A positive control was used, TG003, a benzothiazole compound known to alter splicing through the inhibition of Clk/Sty family activity (Sigma, ref: T5575).
(§2) Two breast cancer cell lines have been treated with 5 μM of drugs for 48 hours: wild-type p53 MCF7 cells and mutant p53 (R280K) MDA-MB-231-Luc-D3H2N provided by Caliper Life Science (parental Line source: American Type Culture collection). The MDA-MB-231-Luc-D3H2N cells were maintained in two different media during treatment: a DMEM supplemented with 10% foetal calf serum (FCS) and a FCS-free medium for 24 hours followed by 24 hours in a complete medium. The MC7 cells were maintained in a DMEM/FCS 10% medium.
(§3) Cells were harvested after 48 hours of treatment. Total RNAs (RNeasy Mini-Kit, Qiagen) and proteins (NuPage LDS 1×, Invitrogen) were extracted to analyse mRNA expression by nested RT-PCR or RT-qPCR and protein expression by Western Blot.
(§4) Analysis of p53 transcriptional activity was assessed through analysis of p53-target gene expression by Western-blot. Four p53-target genes were studied: Hdm2, Bcl-2, p21 and Bax. Hdm2 is known to bind p53 and to negatively regulate p53 activity and stability. p21 is known to mediate p53 dependent cycle arrest. Bcl 2 is known to have an anti-proliferative effect and an apoptotic protective effect, while Bax is known to have a pro-apoptic effect. Bax was not detected in both MCF7 and MDA-MB-231-Luc-D3H2N cells, while p21 was not detected in MDA-MB-231-Luc-D3H2N cells maintained in FCS-free medium. The Western-blot was performed as above described using the antibodies described in Bourdon et al., Genes Dev., 2005, 19: 2122.

[2] = test system: p53 (mutant p53 (R280K) MDA-MB-231-Luc-D3H2N cells); experiment: p53 protein expression by Western Blot (4 antibodies) in MDA-MB-231-Luc-D3H2N cells; conditions: 5 μM, 48 hours
Method: as §1, §2, §3
(§5) p53 protein expression was determined using a panel of 4 different antibodies, namely DO1, SAPLI, CMI and DO12 as described in Bourdon et al. (Genes Dev., 2005, 19: 2122), to avoid problem of detection due to post-translational modification.
The amount of total proteins in each extract was quantified using BCA kit (promega). 8% SDS-PAGE gels were used. Equal amount (30 μg) of proteins was loaded on each lane. Proteins were then transferred electrophoretically on nitrocellulose membrane. Membranes were blocked in TBS/0.1% Tween 20 containing 3% milk for one hour and then incubated overnight with the primary antibodies diluted in TBS/0.1% Tween 20 containing 3% milk. After several washes in TBS/Tween, membranes were incubated with anti-rabbit Ig antibodies linked to HRP. Membranes were developed with ECL according to the manufacturer's instructions.
(§6) Scanned autoradiographs were quantified using AIDA/2D densitometry software.

[3] = test system: p53 isoforms produced by alternative splicing (wild-type p53 MCF7 cells); experiment: p53 isoforms (α, β, γ) expression at mRNA level in MCF7 cells; conditions: 5 μM, 48 hours, RT-qPCR
Method: as §2, §3
(§7) Expression of p53 isoforms produced by alternative splicing (α, β and γ) was analysed at mRNA levels by RT-qPCR using primers/probe specific of each C-terminal variants. The α-forms are the most abundant forms. In the low abundant forms, β-forms are more expressed than γ-forms.
(§8) A semi-quantitative RT-PCR method requiring high quality total RNA 28S/18S ratio (>1.5). After reverse-transcription of 500 ng of total RNA using random primers, actin cDNA was amplified by PCR to confirm reverse-transcription efficiency. 0.5 μg of total RNA from each tumour sample was reverse-transcribed (AMV RT, 45C, random primer) and cDNA quality confirmed by amplification of actin by PCR in 30 cycles. p53 isoform cDNA was amplified by 2 nested PCR of 30 cycles using primers specific of each isoforms as described by Bourdon et al. (Genes Dev., 2005, 19: 2122). Tumours were considered to express each p53 isoform after sequencing of the corresponding PCR fragment.

[4] = test system: p53 (wild-type p53 MCF7 cells); experiment: p53 and Δ133p53 mRNA level by RT-qPCR in MCF7 cells; conditions: 5 μM, 48 hours, vs DMSO
Method: as §1, §2, §3
(§9) Analysis of p53 expression was assessed both at mRNA (full-length and truncated, Δ133p53 isoforms) and protein (full-length) levels by RT-qPCR and Western Blot, respectively.
as §8, with “The p53 isoform cDNA being too long to be specifically quantified by RT-qPCR, a semi-quantitative” for “A semi-quantitative”, “method was therefore used,” for “method”, “RT, 45 C,” for “RT, 45C,”, “described in” for “described by”

[5] = test system: p53 (mutant p53 (R280K) MDA-MB-231-Luc-D3H2N cells); experiment: p53 mRNA level by RT-qPCR in MDA-MB-231-Luc-D3H2N cells; conditions: 5 μM, 48 hours; for p53 expression at mRNA levels (total isoforms, TA): mutant p53 MDA-MB-231-Luc-D3H2N cells in normal medium
Method: as §1, §2, §3, §9
as §8, with “The p53 isoform cDNA being too long to be specifically quantified by RT-qPCR, a semi-quantitative” for “A semi-quantitative”, “method was therefore used,” for “method”, “RT, 45 C,” for “RT, 45C,”, “described in” for “described by”

[6] = test system: p53 isoforms produced by alternative splicing (mutant p53 MDA-MB-231-Luc-D3H2N cells); experiment: p53 isoforms (α, β, γ) expression at mRNA level in MDA-MB-231-Luc-D3H2N cells; conditions: 5 μM, 48 hours, RT-qPCR
Method: as §2, §3, §7, §8

[7] = test system: p53 (wild-type p53 MCF7 cells); experiment: p53 protein expression by Western Blot (4 antibodies) in MCF7 cells; conditions: 5 μM, 48 hours, vs DMSO
Method: as §1, §2
Cells were harvested after 48 hours of treatment. […]
as §5
The amount of total proteins in each extract was quantified using BCA kit (promega). […]
as §6

[8] = test system: p53-target genes Hdm2, Bcl-2, p21 (mutant p53 MDA-MB-231-Luc-D3H2N cells); experiment: p53 transcriptional activity: p53-target gene expression by Western-blot in MDA-MB-231-Luc-D3H2N cells; conditions: 5 μM, 48 hours
Method: as §1, §2, §3, §4

[9] = mutant p53 MDA-MB-231-Luc-D3H2N cells in FCS-free medium
[10] = mutant p53 MDA-MB-231-Luc-D3H2N cells in normal medium

| Compound | expression of Bcl-2 (p53-target gene) [1] | expression of Hdm2 (p53-target gene) [1] | p53 protein levels (full-length) [2, 9] | p53 protein levels (full-length) [2, 10] | expression of p53 β-forms (mRNA) [3] | expression of p53 γ-forms (mRNA) [3] | p53 α-form expression at mRNA levels [3] | total p53 expression (total isoforms, TA) at mRNA levels [4] | p53 expression at mRNA levels (total isoforms, TA) [5] | p53 α-form expression at mRNA levels [6, 9] | expression of p53 β-forms (mRNA) [6, 10] | expression of p53 γ-forms (mRNA) [6, 10] | p53 α-form expression at mRNA levels [6, 10] | p53 protein levels (full-length) [7] | p53-target genes expression [8, 10] | also measured |
| --- | --- | --- | --- | --- | --- | --- | --- | --- | --- | --- | --- | --- | --- | --- | --- | --- |
| CCN(CC)CCCNC(=O)c1cccc(Nc2cccc(/C=C/c3ccc(OC)cc3)c2)c1 [Compound 40] | decreased expression | decreased expression | did not change | did not change | tend to increase | tend to increase | did not change | did not change | decreased | did not change | tend to increase | tend to increase | did not change | decreased | did not affect | Δ133p53 mRNA level [4]: increased; p53-target genes expression [8, 9]: did not affect |
| CCN(CC)CCNC(=O)c1ccccc1Nc1ccc(OC(F)(F)F)cc1 [Compound 45, N-(2-diethylamino-ethyl)-2-(4-trifluoromethoxy-phenylamino)-benzamide] | decreased expression | decreased expression | did not change | did not change | tend to increase | tend to increase | did not change | did not change | decreased | did not change | tend to increase | tend to increase | did not change | decreased | slight decrease | p53 expression at mRNA levels (total isoforms, TA): decreased or not [5, 9]: decreased; expression of p53 β-forms (mRNA) [6, 9]: tend to increase; expression of p53 γ-forms (mRNA) [6, 9]: tend to increase; significant increase of p53 β-forms (mRNA) [6, 10]: 3 fold; significant increase of p53 γ-forms (mRNA) [6, 10]: 2 fold; expression of Bcl-2 (p53-target gene) [8, 9]: slight decrease |
